Test results reported in patent US4542018A, “Teichomycin A2 pure single factors 1, 2, 3, 4 and 5 and method for their production” (Gruppo Lepetit S.p.A., priority 1982, dated 1985).

Tests used:
Solubility = format: physicochemical; details: for solubility in water: water at pH>7.0 or at pH<2
Gram-positive bacteria = assay: In vitro antibacterial spectrum; format: cell-based
Experimental: (§1) Penassay broth (Difco) and Todd-Hewitt broth (Difco) were used for staphylococci and streptococci respectively. Overnight broth cultures were diluted so that the final inoculum was about 10^3 colony forming units/ml.

S. aureus ATCC 6538 = assay: Microbiological potency by agar diffusion method, Teichomycin A2 complex as standard; format: cell-based; details: 2.5-20 μg/ml, 37° C., 18 hours
Experimental: In particular an adeguate amount of Teichomycin A2 factor 1, Teichomycin A2 factor 2, Teichomycin A2 factor 3, Teichomycin A2 factor 4, Teichomycin A2 factor 5 and Teichomycin A2 complex used as the standard is dissolved in dimethylformamide at a concentration of 2000 μg/ml. These solutions are further diluted using phosphate buffer 0.067 M pH 7.4 supplemented with 1% bovine serum in order to provide the following concentrations: 2.5, 5, 10, and 20 μg/ml.
Filter paper discs are then soaked into the sample solutions and placed at regular intervals on the surface of agar plates seeded with a suspension of the test microorganism. The plates are incubated at 37° C. for 18 hours and then the diameter of the inhibition zones are measured. The data obtained are fed into a computer to calculate the potency of the individual factors relative to the complex.

[1] = tested on: Staphylococcus epidermidis; assay: In vitro antibacterial activity (MIC), two-fold dilution in microtiter system; format: cell-based; details: 4 tested strains, clinical isolates, Penassay broth, 18-24 h at 37° C.
Experimental: as §1

Streptococcus agalactiae = assay: as above; format: cell-based; details: 1 tested strain, clinical isolate, Todd-Hewitt broth, 18-24 h at 37° C.
Experimental: as §1

Streptococcus pneumoniae = assay: as above; format: cell-based; details: 6 tested strains, clinical isolates, Todd-Hewitt broth, 18-24 h at 37° C.
Experimental: as §1

Streptococcus pyogenes = assay: as above; format: cell-based; details: 7 tested strains, clinical isolates, Todd-Hewitt broth, 18-24 h at 37° C.
Experimental: as §1

Streptococcus sanguis = assay: as above; format: cell-based; details: 1 tested strain, clinical isolate, Todd-Hewitt broth, 18-24 h at 37° C.
Experimental: as §1

Streptococcus bovis = assay: as above; format: cell-based; details: 1 tested strain, clinical isolate, Todd-Hewitt broth, 18-24 h at 37° C.
Experimental: as §1

Staphylococcus aureus = assay: as above; format: cell-based; details: 5 tested strains, clinical isolates, Penassay broth, 18-24 h at 37° C.
Experimental: as §1

Streptococcus salivarius = assay: as above; format: cell-based; details: 1 tested strain, clinical isolate, Todd-Hewitt broth, 18-24 h at 37° C.
Experimental: as §1

Streptococcus mitis = assay: as above; format: cell-based; details: 1 tested strain, clinical isolate, Todd-Hewitt broth, 18-24 h at 37° C.
Experimental: as §1

Streptococcus faecalis = assay: as above; format: cell-based; details: 5 tested strains, clinical isolates, Todd-Hewitt broth, 18-24 h at 37° C.
Experimental: as §1

S. pneumoniae L 44 = assay: In vivo antibacterial activity, experimental infection in mice; details: s.c.
Experimental: (§2) Teichomycin A2 factors 2,3,4 and 5 were tested in the experimental infections caused by S. pneumoniae and by S. pyogenes in mice. The experiments were carried out in comparison with Teichomycin A2 complex.

S. pyogenes L 49 = assay: as above; details: s.c.
Experimental: as §2

Structure (SMILES) | solubility in chloroform, benzene, n-hexane, acetonitrile, ethyl ether, acetone, ethyl acetate, carbon tetrachloride (Solubility) | solubility in dimethylformamide, dimethylsulfoxide and propyleneglycol (Solubility) | solubility in methanol and ethanol (Solubility) | solubility in methylcellosolve and glycerol (Solubility) | solubility in water (Solubility) | in vitro antibacterial activity (spectrum) (Gram-positive bacteria) | microbiological potency relative to the complex (S. aureus ATCC 6538) | M.I.C. [1] | M.I.C. (Streptococcus agalactiae) | M.I.C. (Streptococcus pneumoniae) | M.I.C. (Streptococcus pyogenes) | M.I.C. (Streptococcus sanguis) | M.I.C. (Streptococcus bovis) | M.I.C. (Staphylococcus aureus) | M.I.C. (Streptococcus salivarius) | M.I.C. (Streptococcus mitis) | M.I.C. (Streptococcus faecalis) | ED50 (S. pneumoniae L 44) | ED50 (S. pyogenes L 49)
CCCCC/C=C\CCC(=O)N[C@H]1[C@H](Oc2c3cc4cc2Oc2ccc(cc2Cl)[C@@H](O[C@@H]2O[C@H](CO)[C@@H](O)[C@H](O)[C@H]2NC(C)=O)[C@@H]2NC(=O)[C@H](NC(=O)[C@@H]4NC(=O)[C@H]4NC(=O)[C@@H](Cc5ccc(c(Cl)c5)O3)NC(=O)[C@H](N)c3ccc(O)c(c3)Oc3cc(O)cc4c3)c3ccc(O)c(c3)-c3c(O[C@H]4O[C@H](CO)[C@@H](O)[C@H](O)[C@@H]4O)cc(O)cc3[C@@H](C(=O)O)NC2=O)O[C@H](CO)[C@@H](O)[C@@H]1O [Teichomycin A2 factor 1] | almost insoluble | freely soluble | poorly soluble | slightly soluble | freely soluble | mainly active against Gram-positive bacteria | 841 U/mg | 0.2 to 1.6 µg/mL | 0.1 µg/mL | 0.1 to 0.2 µg/mL | 0.05 to 0.1 µg/mL | 0.1 µg/mL | 0.4 µg/mL | 0.8 to 1.6 µg/mL | 0.2 µg/mL | 0.025 µg/mL | 0.2 to 0.4 µg/mL |  | 
CC(=O)N[C@H]1[C@H](O[C@@H]2c3ccc(c(Cl)c3)Oc3cc4cc(c3O[C@@H]3O[C@H](CO)[C@@H](O)[C@H](O)[C@H]3NC(=O)CCCCCCC(C)C)Oc3ccc(cc3Cl)C[C@H]3NC(=O)[C@H](N)c5ccc(O)c(c5)Oc5cc(O)cc(c5)[C@H](NC3=O)C(=O)N[C@H]4C(=O)N[C@H]3C(=O)N[C@@H]2C(=O)N[C@H](C(=O)O)c2cc(O)cc(O[C@H]4O[C@H](CO)[C@@H](O)[C@H](O)[C@@H]4O)c2-c2cc3ccc2O)O[C@H](CO)[C@@H](O)[C@@H]1O [Teichomycin A2 factor 2] | almost insoluble | freely soluble | poorly soluble | slightly soluble | freely soluble | mainly active against Gram-positive bacteria | 1086 U/mg | 0.1 to 1.6 µg/mL | 0.1 µg/mL | 0.05 to 0.1 µg/mL | 0.025 to 0.1 µg/mL | 0.1 µg/mL | 0.4 µg/mL | 0.8 to 1.6 µg/mL | 0.2 µg/mL | 0.025 µg/mL | 0.1 to 0.4 µg/mL | 0.28 (0.22-0.34) mg/kg/day | 0.15 (0.13-0.18) mg/kg/day
CCCCCCCCCC(=O)N[C@H]1[C@H](Oc2c3cc4cc2Oc2ccc(cc2Cl)[C@@H](O[C@@H]2O[C@H](CO)[C@@H](O)[C@H](O)[C@H]2NC(C)=O)[C@@H]2NC(=O)[C@H](NC(=O)[C@@H]4NC(=O)[C@H]4NC(=O)[C@H](Cc5ccc(c(Cl)c5)O3)NC(=O)[C@H](N)c3ccc(O)c(c3)Oc3cc(O)cc4c3)c3ccc(O)c(c3)-c3c(O[C@H]4O[C@H](CO)[C@@H](O)[C@H](O)[C@@H]4O)cc(O)cc3[C@@H](C(=O)O)NC2=O)O[C@H](CO)[C@@H](O)[C@@H]1O [Teichomycin A2 factor 3] | almost insoluble | freely soluble | poorly soluble | slightly soluble | freely soluble | mainly active against Gram-positive bacteria | 1131 U/mg | 0.2 to 0.8 µg/mL | 0.05 µg/mL | 0.05 to 0.1 µg/mL | 0.025 to 0.05 µg/mL | 0.1 µg/mL | 0.2 µg/mL | 0.4 to 0.8 µg/mL | 0.1 µg/mL | 0.0125 µg/mL | 0.1 to 0.2 µg/mL | 0.27 (0.23-0.32) mg/kg/day | 0.13 (0.11-0.16) mg/kg/day
CC(=O)N[C@H]1[C@H](O[C@@H]2c3ccc(c(Cl)c3)Oc3cc4cc(c3O[C@@H]3O[C@H](CO)[C@@H](O)[C@H](O)[C@H]3NC(=O)CCCCCCCC(C)C)Oc3ccc(cc3Cl)C[C@H]3NC(=O)[C@H](N)c5ccc(O)c(c5)Oc5cc(O)cc(c5)[C@H](NC3=O)C(=O)N[C@H]4C(=O)N[C@H]3C(=O)N[C@@H]2C(=O)N[C@H](C(=O)O)c2cc(O)cc(O[C@H]4O[C@H](CO)[C@@H](O)[C@H](O)[C@@H]4O)c2-c2cc3ccc2O)O[C@H](CO)[C@@H](O)[C@@H]1O [Teichomycin A2 factor 5] | almost insoluble | freely soluble | poorly soluble | slightly soluble | freely soluble | mainly active against Gram-positive bacteria | 954 U/mg | 0.2 to 0.8 µg/mL | 0.1 µg/mL | 0.05 to 0.1 µg/mL | 0.006 to 0.05 µg/mL | 0.05 µg/mL | 0.4 µg/mL | 0.2 to 0.8 µg/mL | 0.05 µg/mL | 0.025 µg/mL | 0.1 to 0.4 µg/mL | 0.13 (0.10-0.15) mg/kg/day | 0.10 (0.098-0.13) mg/kg/day
CCC(C)CCCCCCC(=O)N[C@H]1[C@H](Oc2c3cc4cc2Oc2ccc(cc2Cl)[C@@H](O[C@@H]2O[C@H](CO)[C@@H](O)[C@H](O)[C@H]2NC(C)=O)[C@@H]2NC(=O)[C@H](NC(=O)[C@@H]4NC(=O)[C@H]4NC(=O)[C@@H](Cc5ccc(c(Cl)c5)O3)NC(=O)[C@H](N)c3ccc(O)c(c3)Oc3cc(O)cc4c3)c3ccc(O)c(c3)-c3c(O[C@H]4O[C@H](CO)[C@@H](O)[C@H](O)[C@@H]4O)cc(O)cc3[C@@H](C(=O)O)NC2=O)O[C@H](CO)[C@@H](O)[C@@H]1O (stereo partly shown) [Teichomycin A2 factor 4] | almost insoluble | freely soluble | poorly soluble | slightly soluble | freely soluble | mainly active against Gram-positive bacteria | 1066 U/mg | 0.2 to 0.8 µg/mL | 0.1 µg/mL | 0.05 to 0.1 µg/mL | 0.006 to 0.05 µg/mL | 0.05 µg/mL | 0.4 µg/mL | 0.2 to 0.8 µg/mL | 0.05 µg/mL | 0.025 µg/mL | 0.1 to 0.4 µg/mL |  | 
